# Values joined by “and” are separate entries in the source; they are usually repeats but may differ in a detail not shown here. Equal values may be shown once. Positions of bridges follow the written chain, without caps; N, C: chain ends. Non-standard residues stand in square brackets, D forms with d. Residues, ends and D or L forms follow the SMILES beside them. Chains are numbered I, II in the order given. *: point of attachment. RhodamineB = CCN(CC)c1ccc2c(-c3ccccc3C(=O)*)c3ccc(=[N+](CC)CC)cc-3oc2c1; hPhe = N[C@@H](CCc1ccccc1)C(=O)O; Ahx = NCCCCCC(=O)O
# What was measured:
# Type in all cases: cell-based
# [1] = MTT cytotoxicity assay in HeLa cells; details: human
# Description: MTT assays were conducted in HeLa cells to evaluate the effect of fluorescent probe incorporation on the in vitro cytotoxic activity of the parent non-conjugated peptides. The cytotoxic effect of peptides 1, Abz-1 RhB-1, 2, and RhB-2 in HeLa cells was peptide concentration-dependent, with the highest anticancer activity observed at 200 µg/mL. Incorporation of 2-Abz and RhB at the N-terminal end reduced cytotoxic activity, while the binding of 2-Abz at the C-terminal end or FAM at the N-terminal end drastically diminished anticancer activity (Table 4).
# HeLa cells [2] = test: Fluorescence confocal microscopy, colocalization analysis (ImageJ JaCoP); details: 2 h at IC50, colocalization with SMA antibody
# Description: The possible cellular distribution of the peptides was determined by colocalization analysis of the Rhodamine B fluorescent signal, with fluorophores used to stain the nucleus (Hoechst 33342) and cytoplasm components (SMA antibody). ImageJ 1.54f analysis software and the JaCoP plugin were used to analyze signal colocalization.
# HeLa cells (>70% confluence) were seeded on sterile round coverslips in 24-well plates with DMEM + 5% FBS and incubated at 37 °C, 5% CO2 for 24 h. After adhesion, the medium was replaced, and cells were treated with fluorescent peptides at their IC50 for 2 h. Then, cells were washed with PBS under constant stirring (3 × 10 min). Cellular fixation was performed using a solution containing 2% paraformaldehyde and 1% sucrose 100 mM in PBS for 30 min, followed by PBS washes (2 × 10 min). Permeabilization was carried out using a solution of 0.1% Triton X-100 and 20 mM glycine in PBS for 10 min, followed by two additional PBS washes. Blocking was performed with 1% BSA and 20 mM glycine in PBS for 10 min. […] For the fluorescence lecture, 5 µL of Fluoromount mounting medium was applied to the slide, and the coverslip containing the cells was inverted onto the medium. Slides were allowed to be dry-protected from light, and cells were visualized using a Leica DMi8 fluorescence confocal microscope. […]
# HeLa cells [3] = test: Micrographs of cell morphology after peptide treatment; details: 100 µg/mL, 2 h, 37 °C
# Text: Despite these pronounced morphological alterations, there was no evidence of cell rupture, membrane disintegration, or the presence of cell fragments, indicating the absence of necrotic processes. […] Green arrows indicate normal morphologies, such as cytoplasmic elongations and polygonal shapes. Red arrows indicate morphological changes induced by the peptides, including cell rounding, shrinkage, and loss of cytoplasmic projections. Scale bar: µm. The control corresponds to untreated cells.
smiles,measurement,setting,value
"CCN(CC)c1ccc2c(-c3ccccc3C(=O)N[C@@H](CCCNC(=N)N)C(=O)N[C@@H](CCCNC(=N)N)C(=O)N[C@@H](Cc3c[nH]c4ccccc34)C(=O)N[C@@H](CCC(N)=O)C(=O)N[C@@H](Cc3c[nH]c4ccccc34)C(=O)N[C@@H](CCCNC(=N)N)C(=O)N[C@@H](CCc3ccccc3)C(=O)N[C@@H](CCCCN)C(=O)N[C@@H](CCCCN)C(=O)N[C@@H](CC(C)C)C(=O)NCC(=O)NCCCC[C@H](NC(=O)CNC(=O)[C@H](CC(C)C)NC(=O)[C@H](CCCCN)NC(=O)[C@H](CCCCN)NC(=O)[C@H](CCc3ccccc3)NC(=O)[C@H](CCCNC(=N)N)NC(=O)[C@H](Cc3c[nH]c4ccccc34)NC(=O)[C@H](CCC(N)=O)NC(=O)[C@H](Cc3c[nH]c4ccccc34)NC(=O)[C@H](CCCNC(=N)N)NC(=O)[C@H](CCCNC(=N)N)NC(=O)c3ccccc3-c3c4ccc(=[N+](CC)CC)cc-4oc4cc(N(CC)CC)ccc34)C(=O)NCCCCCC(N)=O)c3ccc(=[N+](CC)CC)cc-3oc2c1 [RhB-2, (RhB-RRWQWR-hF-KKLG)2K-Ahx] (I: RhodamineB-RRWQWR[hPhe]KKLGK[Ahx]-NH2 / II: RhodamineB-RRWQWR[hPhe]KKLG; amide I:12-II:C)",IC50,[1],151 µg/mL and 35 µM
same,cellular localization,HeLa cells [2],internalized and distributed in the cytoplasm
same,morphological changes,HeLa cells [3],"appeared smaller, rounded, and contained vacuoles"
